BigSolDB 2.1

Cn1[nH]c(=O)c(=O)[nH]c1=S
Settings	solubility (mole fraction)
in acetone, 293.25 K	0.015
in acetone, 298.25 K	0.0155
in acetone, 303.09 K	0.016
in acetone, 308.05 K	0.0168
in acetone, 312.79 K	0.0178
in acetone, 318.03 K	0.0186
in acetone, 323.07 K	0.0199
in acetone, 327.37 K	0.0209
in acetonitrile, 293.21 K	0.00221
in acetonitrile, 298.23 K	0.00248
in acetonitrile, 303.15 K	0.00268
in acetonitrile, 308.11 K	0.00299
in acetonitrile, 313.07 K	0.00333
in acetonitrile, 317.95 K	0.00375
in acetonitrile, 323.11 K	0.0042
in acetonitrile, 328.13 K	0.00463
in acetonitrile, 333.23 K	0.00521
in acetonitrile, 338.17 K	0.00585
in acetonitrile, 342.75 K	0.00654
in ethanol, 293.23 K	0.0125
in ethanol, 298.35 K	0.014
in ethanol, 303.33 K	0.0152
in ethanol, 308.29 K	0.0169
in ethanol, 313.47 K	0.0186
in ethanol, 318.47 K	0.0205
in ethanol, 323.41 K	0.0228
in ethanol, 328.23 K	0.0255
in ethanol, 333.53 K	0.0278
in ethanol, 338.63 K	0.0307
in ethanol, 343.33 K	0.0345
in ethyl acetate, 293.07 K	0.00574
in ethyl acetate, 298.49 K	0.00617
in ethyl acetate, 303.41 K	0.00643
in ethyl acetate, 308.49 K	0.00697
in ethyl acetate, 313.53 K	0.00747
in ethyl acetate, 318.67 K	0.00799
in ethyl acetate, 323.49 K	0.0086
in ethyl acetate, 328.61 K	0.00918
in ethyl acetate, 333.53 K	0.00985
in ethyl acetate, 338.23 K	0.0104
in ethyl acetate, 343.33 K	0.0111
in isopropanol, 293.11 K	0.00556
in isopropanol, 298.21 K	0.00663
in isopropanol, 303.13 K	0.00782
in isopropanol, 308.11 K	0.00915
in isopropanol, 312.87 K	0.0107
in isopropanol, 317.83 K	0.0124
in isopropanol, 323.07 K	0.0142
in isopropanol, 328.13 K	0.0164
in isopropanol, 333.09 K	0.0187
in isopropanol, 337.75 K	0.0217
in isopropanol, 342.67 K	0.0248
in n-butanol, 293.11 K	0.00872
in n-butanol, 298.23 K	0.00964
in n-butanol, 302.99 K	0.0109
in n-butanol, 308.11 K	0.0124
in n-butanol, 313.13 K	0.0141
in n-butanol, 318.05 K	0.0159
in n-butanol, 322.89 K	0.0178
in n-butanol, 328.13 K	0.02
in n-butanol, 333.39 K	0.0224
in n-butanol, 338.07 K	0.0255
in n-butanol, 343.23 K	0.0288
in n-propanol, 292.99 K	0.00859
in n-propanol, 298.33 K	0.00959
in n-propanol, 303.23 K	0.0108
in n-propanol, 308.23 K	0.0122
in n-propanol, 313.15 K	0.0139
in n-propanol, 318.23 K	0.0157
in n-propanol, 323.23 K	0.0176
in n-propanol, 328.47 K	0.0198
in n-propanol, 333.07 K	0.0223
in n-propanol, 338.33 K	0.0251
in n-propanol, 343.35 K	0.0286
in water, 293.23 K	0.00139
in water, 298.15 K	0.00158
in water, 302.93 K	0.00187
in water, 312.93 K	0.00263
in water, 317.65 K	0.00306
in water, 322.85 K	0.00366
in water, 327.77 K	0.00438
in water, 332.83 K	0.00522
in water, 337.35 K	0.00623
in water, 342.47 K	0.00748
